According to paper PMC5686171 (Scientific Reports, 2017):
Where two headings read alike, the source gives them in different places.

How the values were obtained:
[1] = system: γ2F77Y in α1β2γ2; conditions: ref [29], cited from earlier work
[2] = target: T1, γ2Y220Qβ2 (Rattus norvegicus, UniProt P18508+P63138, Y258Q); test: Two-electrode voltage clamp, mutant γ2Y220Qβ2 in Xenopus oocytes; type: cell-based; conditions: for DZ potentiation: 1 µM diazepam
T1 construct: expressed in transfected cells; host or cells: Xenopus laevis oocytes (cRNA injection, β2:γ2 1:3)
T1 sequence (P63138 25-474 limits assumed): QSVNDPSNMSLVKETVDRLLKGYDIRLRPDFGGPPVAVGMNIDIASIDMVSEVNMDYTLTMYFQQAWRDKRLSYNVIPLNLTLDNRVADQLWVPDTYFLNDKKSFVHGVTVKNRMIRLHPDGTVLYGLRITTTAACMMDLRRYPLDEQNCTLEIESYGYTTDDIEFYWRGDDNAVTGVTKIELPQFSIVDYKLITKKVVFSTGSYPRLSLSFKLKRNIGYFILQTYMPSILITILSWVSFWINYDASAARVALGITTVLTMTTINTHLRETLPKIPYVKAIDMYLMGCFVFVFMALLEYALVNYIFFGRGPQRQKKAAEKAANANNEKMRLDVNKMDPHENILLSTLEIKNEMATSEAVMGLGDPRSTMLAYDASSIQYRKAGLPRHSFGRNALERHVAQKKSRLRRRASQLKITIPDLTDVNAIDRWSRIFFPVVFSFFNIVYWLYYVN
T1 sequence (P18508 39-466 Y258Q): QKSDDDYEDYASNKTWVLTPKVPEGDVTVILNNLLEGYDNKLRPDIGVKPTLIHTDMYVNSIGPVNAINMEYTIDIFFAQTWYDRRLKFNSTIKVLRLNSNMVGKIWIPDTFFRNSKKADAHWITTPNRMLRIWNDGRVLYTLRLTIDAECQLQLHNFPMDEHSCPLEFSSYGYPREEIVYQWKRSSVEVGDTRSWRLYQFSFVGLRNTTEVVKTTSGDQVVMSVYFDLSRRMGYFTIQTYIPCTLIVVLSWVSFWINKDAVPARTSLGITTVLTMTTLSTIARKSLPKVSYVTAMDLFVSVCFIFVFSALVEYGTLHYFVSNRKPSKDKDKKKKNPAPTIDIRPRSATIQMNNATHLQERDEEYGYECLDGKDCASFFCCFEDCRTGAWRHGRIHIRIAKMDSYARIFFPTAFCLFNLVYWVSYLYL
Procedure: (§1) The point mutations β2Y62Lγ2, β2T202Aγ2, β2T202Sγ2, β2Y205Sγ2, β2Y205Qγ2, β2γ2F77Y, β2γ2S217A, β2γ2Y220S and β2γ2Y220Q were prepared using the QuickChange^TM mutagenesis kit (Stratagene, Agilent Technologies, Basel, Switzerland).
(§2) Animal experiments were carried out in strict accordance to the Swiss ethical guidelines, and have been approved by the local committee of the Canton Bern Kantonstierarzt, Kantonaler Veterinärdienst Bern (BE85/15). Surgery of Xenopus laevis to obtain the oocytes was done under anesthesia, and all efforts were made to diminish animal suffering. Oocytes were prepared, injected and defolliculated as described previously[41],[42]. Polyadenylated cRNA coding for the subunits of GABAA receptors were prepared in vitro with the mMESSAGE mMACHINE kit (Ambion, Austin, TX, USA). Oocytes were injected with 50 nl of solution containing cRNA coding for wild type or mutants β2 (1 fMol) or γ2 (3 fMol) subunits and then incubated in modified Barth’s solution (10 mM HEPES, pH 7.5, 88 mM NaCl, 1 mM KCl, 2.4 mM NaHCO3, 0.82 mM MgSO4, 0.34 mM Ca(NO3)2, 0.41 mM CaCl2, 100 units/ml penicillin, 100 µg/ml streptomycin) at 18 °C for 5–7 days before measurements.
(§3) Electrophysiological experiments were performed using an Oocyte Clamp OC-725 (Warner Instrument Corp., Hamden, USA) two-electrode voltage clamp amplifier. Currents were digitized at 5 kHz with MacLab/200 (AD Instruments, Spechbach, Germany).
(§4) The holding potential was −80 mV. The perfusion medium contained 90 mM NaCl, 1 mM KCl, 1 mM MgCl2, 1 mM CaCl2 and 5 mM Na-HEPES (pH 7.4). The perfusion solution (6 ml/min) was applied through a glass capillary with an inner diameter of 1.35 mm, the mouth of which was placed about 0.5 mm from the surface of the oocyte. […] Maximal current amplitudes (Imax) were obtained from the fits of the concentration-response curves. The individual curves were fitted and standardized to Imax and subsequently averaged. […] The duration of washout periods was 4 min in between agonist or agonist/drug applications to prevent receptor desensitization. […]

[3] = target: T2, β2T202Sγ2 (Rattus norvegicus, UniProt P18508+P63138, T226S); test: Two-electrode voltage clamp, mutant β2T202Sγ2 in Xenopus oocytes; type: cell-based; conditions: for DZ potentiation: 1 µM diazepam
T2 construct: expressed in transfected cells; host or cells: Xenopus laevis oocytes (cRNA injection, β2:γ2 1:3)
T2 sequence (P63138 25-474 T226S limits assumed): as the sequence (P63138 25-474 limits assumed) above, with T202S counted along it
T2 sequence (P18508 39-466): as the sequence (P18508 39-466 Y258Q) above, with Q220Y counted along it
Procedure: as §1, §2, §3, §4

[4] = target: T3, β2γ2 GABAA receptors (Rattus norvegicus, UniProt P18508+P63138); test: Two-electrode voltage clamp, wild type β2γ2 receptors expressed in Xenopus oocytes; type: cell-based; conditions: for DZ potentiation: 1 µM diazepam, GABA eliciting 1–5% of maximal current; for GABA current amplitude: 10 mM GABA
T3 construct: expressed in transfected cells; host or cells: Xenopus laevis oocytes (cRNA injection, β2:γ2 1:3)
T3 sequence (P63138 25-474 limits assumed): as the sequence (P63138 25-474 limits assumed) above
T3 sequence (P18508 39-466): as the sequence (P18508 39-466 Y258Q) above, with Q220Y counted along it
Procedure: as §2, §3, §4

[5] = target: T4, β2Y62Lγ2 (Rattus norvegicus, UniProt P18508+P63138, Y86L); test: Two-electrode voltage clamp, mutant β2Y62Lγ2 in Xenopus oocytes; type: cell-based; conditions: for DZ potentiation: 1 µM diazepam
T4 construct: expressed in transfected cells; host or cells: Xenopus laevis oocytes (cRNA injection, β2:γ2 1:3)
T4 sequence (P63138 25-474 Y86L limits assumed): as the sequence (P63138 25-474 limits assumed) above, with Y62L counted along it
T4 sequence (P18508 39-466): as the sequence (P18508 39-466 Y258Q) above, with Q220Y counted along it
Procedure: as §1, §2, §3, §4

[6] = target: T5, γ2F77Yβ2 (Rattus norvegicus, UniProt P18508+P63138, F115Y); test: Two-electrode voltage clamp, mutant γ2F77Yβ2 in Xenopus oocytes; type: cell-based; conditions: for DZ potentiation: 1 µM diazepam
T5 construct: expressed in transfected cells; host or cells: Xenopus laevis oocytes (cRNA injection, β2:γ2 1:3)
T5 sequence (P63138 25-474 limits assumed): as the sequence (P63138 25-474 limits assumed) above
T5 sequence (P18508 39-466 F115Y): as the sequence (P18508 39-466 Y258Q) above, with F77Y, Q220Y counted along it
Procedure: as §1, §2, §3, §4

[7] = system: α1T206C in α1β2γ2; conditions: ref [12],[27]; cited from earlier work
[8] = system: α1β2γ2; conditions: read-out: EC50 of diazepam; cited from earlier work
[9] = system: α1T206A in α1β2γ2; conditions: ref [26]; cited from earlier work
[10] = system: α1T206V in α1β2γ2; conditions: ref [28]; cited from earlier work
[11] = system: mice carrying a point mutation in all those four alpha subunits; set-up: method as in Ralvenius et al.[40]; conditions: point-mutated mice, 10 mg/kg diazepam, ref Ralvenius et al.[40], cited from earlier work
[12] = target: T6, γ2S217Aβ2 (Rattus norvegicus, UniProt P18508+P63138, S255A); test: Two-electrode voltage clamp, mutant γ2S217Aβ2 in Xenopus oocytes; type: cell-based; conditions: for DZ potentiation: 1 µM diazepam
T6 construct: expressed in transfected cells; host or cells: Xenopus laevis oocytes (cRNA injection, β2:γ2 1:3)
T6 sequence (P63138 25-474 limits assumed): as the sequence (P63138 25-474 limits assumed) above
T6 sequence (P18508 39-466 S255A): as the sequence (P18508 39-466 Y258Q) above, with S217A, Q220Y counted along it
Procedure: as §1, §2, §3, §4

[13] = target: T7, γ2 (Rattus norvegicus, UniProt P18508); test: Two-electrode voltage clamp, γ2 subunit expressed alone in Xenopus oocytes; type: cell-based
T7 construct: expressed in transfected cells; host or cells: Xenopus laevis oocytes (cRNA injection)
T7 sequence (P18508 39-466): as the sequence (P18508 39-466 Y258Q) above, with Q220Y counted along it
Procedure: as §2, §3
(§5) The holding potential was −80 mV. The perfusion medium contained 90 mM NaCl, 1 mM KCl, 1 mM MgCl2, 1 mM CaCl2 and 5 mM Na-HEPES (pH 7.4). […]

[14] = target: T8, β2 (Rattus norvegicus, UniProt P63138); test: Two-electrode voltage clamp, β2 subunit expressed alone in Xenopus oocytes; type: cell-based
T8 construct: expressed in transfected cells; host or cells: Xenopus laevis oocytes (cRNA injection)
T8 sequence (P63138 25-474 limits assumed): as the sequence (P63138 25-474 limits assumed) above
Procedure: as §2, §3, §5

[15] = system: α1β2Y62Lγ2 receptors; test: Effect of mutation β2Y62L in α1β2γ2 receptors; type: cell-based; conditions: 50 µM etomidate vs GABA
[16] = target: T9, β2Y205Qγ2 (Rattus norvegicus, UniProt P18508+P63138, Y229Q); test: Two-electrode voltage clamp, mutant β2Y205Qγ2 in Xenopus oocytes; type: cell-based; conditions: 50 µM etomidate
T9 construct: expressed in transfected cells; host or cells: Xenopus laevis oocytes (cRNA injection, β2:γ2 1:3)
T9 sequence (P63138 25-474 Y229Q): as the sequence (P63138 25-474 limits assumed) above, with Y205Q counted along it
T9 sequence (P18508 39-466): as the sequence (P18508 39-466 Y258Q) above, with Q220Y counted along it
Procedure: as §1, §2
(§6) Electrophysiological experiments were performed using an Oocyte Clamp OC-725 (Warner Instrument Corp., Hamden, USA) two-electrode voltage clamp amplifier. […]

[17] = target: T10, γ2Y220Sβ2 (Rattus norvegicus, UniProt P18508+P63138, Y258S); test: Two-electrode voltage clamp, mutant γ2Y220Sβ2 in Xenopus oocytes; type: cell-based; conditions: 50 µM etomidate
T10 construct: expressed in transfected cells; host or cells: Xenopus laevis oocytes (cRNA injection, β2:γ2 1:3)
T10 sequence (P63138 25-474 limits assumed): as the sequence (P63138 25-474 limits assumed) above
T10 sequence (P18508 39-466 Y258S): as the sequence (P18508 39-466 Y258Q) above, with Q220S counted along it
Procedure: as §1, §2, §6

[18] = target: T11, β2Y205Sγ2 (Rattus norvegicus, UniProt P18508+P63138, Y229S); test: Two-electrode voltage clamp, mutant β2Y205Sγ2 in Xenopus oocytes; type: cell-based; conditions: 50 µM etomidate
T11 construct: expressed in transfected cells; host or cells: Xenopus laevis oocytes (cRNA injection, β2:γ2 1:3)
T11 sequence (P63138 25-474 Y229S): as the sequence (P63138 25-474 limits assumed) above, with Y205S counted along it
T11 sequence (P18508 39-466): as the sequence (P18508 39-466 Y258Q) above, with Q220Y counted along it
Procedure: as §1, §2, §6

[19] = target: T12, β2T202Aγ2 (Rattus norvegicus, UniProt P18508+P63138, T226A); test: Two-electrode voltage clamp, mutant β2T202Aγ2 in Xenopus oocytes; type: cell-based; conditions: 50 µM etomidate
T12 construct: expressed in transfected cells; host or cells: Xenopus laevis oocytes (cRNA injection, β2:γ2 1:3)
T12 sequence (P63138 25-474 T226A): as the sequence (P63138 25-474 limits assumed) above, with T202A counted along it
T12 sequence (P18508 39-466): as the sequence (P18508 39-466 Y258Q) above, with Q220Y counted along it
Procedure: as §1, §2, §6

## CN1C(=O)CN=C(c2ccccc2)c2cc(Cl)ccc21 [diazepam]
[1]; listed as DZ
  Decrease in DZ affinity: 230-fold decrease in DZ affinity
[1]
  Decrease in DZ affinity: abolishes the binding site
[2]; γ2Y220Qβ2
  DZ potentiation: not significantly affected
[2]; γ2Y220Qβ2, listed as DZ
  DZ potentiation: 127 ± 11 (6) %
[3]; β2T202Sγ2
  DZ potentiation: not significantly affected
[3]; β2T202Sγ2, listed as DZ
  DZ potentiation: 100 ± 7 (4) %
[4]; β2γ2
  Hill coefficient of diazepam: 0.6 ± 0.1
  DZ potentiation: 216 ± 30%
[4]; β2γ2, listed as DZ
  DZ potentiation: 216 ± 30 (15) %
[5]; β2Y62Lγ2
  DZ potentiation: not significantly affected
[5]; β2Y62Lγ2, listed as DZ
  DZ potentiation: 121 ± 12 (5) %
[6]
  DZ potentiation: nearly lost
[6]; listed as DZ
  DZ potentiation: 5 ± 2 (5) %
[7]
  Effect on DZ affinity: (no effect on DZ affinity)
[8]
  EC50: 92 ± 6 nM
[9]
  Decrease in DZ affinity: (3-fold decrease in DZ affinity)
[10]
  Decrease in DZ affinity: (7-fold decrease in DZ affinity)
[11]; quite prominent at higher doses
  Locomotor activity: trend towards reduced locomotor activity
[11]
  Diazepam-induced muscle relaxation and motor impairment: completely protected
[12]; γ2S217Aβ2
  DZ potentiation: not significantly affected
[12]; γ2S217Aβ2, listed as DZ
  DZ potentiation: 185 ± 23 (4) %

## NCCCC(=O)O [GABA, γ-Aminobutyric acid]
[2]; β2γ2Y220Q
  Hill coefficient of GABA: 0.7 ± 0.1
[2]; β2γ2Y220Q vs wild-type β2γ2
  Decrease in sensitivity to GABA: 5 fold
[2]; γ2Y220Qβ2, 10 mM GABA
  GABA current amplitude: 127 ± 40 (6) nA
[3]; β2T202Sγ2
  Hill coefficient of GABA: 0.8 ± 0.1
[3]; β2T202Sγ2, 10 mM GABA
  GABA current amplitude: 203 ± 18 (5) nA
[3]; β2T202Sγ2 vs wild-type β2γ2
  Decrease in GABA sensitivity: 42 fold
[13]; 10 mM GABA
  GABA current amplitude: −4 ± 1 (5) nA
[4]; β2γ2
  Hill coefficient of GABA: 1.0 ± 0.1
[4]; β2γ2, cRNA ratio 1:3, −80 mV
  GABA current amplitude: 131 ± 19 (13) nA
[4]; β2γ2 from 1:1 and 2:1 cRNA ratios
  GABA current amplitude: less than 100 nA
[5]; β2Y62Lγ2
  Hill coefficient of GABA: 1.0 ± 0.1
[5]; β2Y62Lγ2, 10 mM GABA
  GABA current amplitude: 53 ± 8 (17) nA
[5]; β2Y62Lγ2 vs wild-type β2γ2
  Decrease in the sensitivity for GABA: 3 fold
  Smaller GABA current amplitude compared to wild-type: 2 fold
[6]
  Hill coefficient of GABA: 0.9 ± 0.1
[6]; 10 mM GABA
  GABA current amplitude: 148 ± 23 (11) nA
[14]; 10 mM GABA
  GABA current amplitude: −4 ± 1 (4) nA
[12]; β2γ2S217A
  Hill coefficient of GABA: 0.8 ± 0.1
[12]; β2γ2S217A vs wild-type β2γ2
  Decrease in sensitivity to GABA: 2 fold
[12]; γ2S217Aβ2, 10 mM GABA
  GABA current amplitude: 100 ± 25 (13) nA

## CCOC(=O)c1cncn1[C@H](C)c1ccccc1 [etomidate]
[15]
  Etomidate current relative to GABA current (fold smaller): about 30 fold
[16]
  Etomidate current amplitude: 6 ± 2 (5) nA
[17]
  Etomidate current amplitude: 76 ± 17 (5) nA
[2]; γ2Y220Qβ2, 50 µM etomidate
  Etomidate current amplitude: 777 ± 113 (5) nA
[3]; β2T202Sγ2, 50 µM etomidate
  Etomidate current amplitude: 380 ± 77 (5) nA
[13]; 50 µM etomidate
  Etomidate current amplitude: 0 ± 0 (5) nA
[4]; wild type β2γ2, 50 µM etomidate vs saturating GABA
  Etomidate current relative to GABA current (fold larger): about 7 fold
[4]; β2γ2, 50 µM etomidate, −80 mV
  Etomidate current amplitude: 946 ± 8 (4) nA
[5]; β2Y62Lγ2, 50 µM etomidate
  Etomidate current amplitude: 13 ± 3 (11) nA
[5]; β2Y62Lγ2, 50 µM etomidate vs saturating GABA
  Etomidate current relative to GABA current (fold smaller): about 4 fold
[6]; 50 µM etomidate
  Etomidate current amplitude: 193 ± 25 (4) nA
[14]; 50 µM etomidate
  Etomidate current amplitude: 4 ± 1 (4) nA
[18]
  Etomidate current amplitude: 0 ± 0 (5) nA
[19]
  Etomidate current amplitude: 8 ± 2 (5) nA
[12]; γ2S217Aβ2, 50 µM etomidate
  Etomidate current amplitude: 141 ± 31 (5) nA
